The text below walks through data of patent publication US4088772A, “Methanodibenzocycloheptapyrroles” (E. I. Du Pont de Nemours and Company, priority 1975, dated 1978).

The structures appear in SMILES notation. Where two headings read alike, the source gives them in different places.

One series has as its system female CF1 S mice. Kind of series: Mouse spontaneous motor activity (activity cage). In kind it is in vivo, mouse (CF1 S female). The conditions noted are these: 0.5 h, read-out: Exploratory Loss Activity Cage ED50. On the procedure:
Mouse Spontaneous Motor Activity (Activity Cage)
Twenty-four per dose, 16- 20 g or 18-22 g, female CF1 S mice, fasted 16- 22 hours, are intubated (in pairs) with drug at t doses such as 0, 1, 3, 9, 27 and 81 mg/kg in 10 ml/kg of aqueous 1% methylcellulose. The mice are then put in separate "shoe-box" cages (12 × 7.5 × 5.3 inches plastic with a 0.33 inch mesh stainless steel lid), and 20 minutes after intubation the animals in pairs are moved to covered Woodard Photoelectric Activity Chambers (central light source type measurement floor area = 96 in^2). Ten minutes later (30 minutes after dosing) a 5-minute count is taken. Counting chamber characteristics are balanced out by counting 2 pairs of mice from each dose level in each of 6 different counting chambers. Half of each test is run in the a.m. and the other half is run in the p.m. to minimize "biological clock" variations.
Canad. Biol. 20, 239-50 (1961), raw counts are thus transformed for statistical treatment (Student's t test). The means of the square roots then are squared and an ED50 for stimulation or depression (or both) is determined graphically.

For another series, the system named is Holzman male white rats. Kind of series: Rat approach-avoidance test (anti-anxiety). It counts as in vivo, rat (Holzman male white). To be noted: for anti-anxiety activity: in words; for ED50: Rattus norvegicus. On the procedure: Potential as anti-anxiety agents was assessed by means of the potency of these compounds in the rat approach-avoidance test.
Approach-Avoidance Test Method
18 hr. waterdeprived Holzman male white rats, 150-175 g each, were used. The apparatus consists of two interconnected chambers, the first in which the animal is placed, and a second which contains the stimulus and a water bottle. The second is fitted with an electrifiable floor. On the first day, the rats are placed in the first chamber. They are allowed three minutes to find the water bottle in the second chamber and to drink water for at least two seconds. After three successful trials on the first day the animals are given one predrug trial on the second day. Then follows a second predrug trial during which the floor of the second chamber is electrified 1.5 seconds after the rat has commenced drinking water. The animals are randomized, dosed orally, and reexposed to the test situation at 1, 2, or 4 hours after the shock trial.

The nature of the next series: in vivo. To be noted: mouse, in vivo, po.
The subject of series [1] is phenylquinone-induced writhing. Kind of series: Phenylquinone writhing test (analgesia). It counts as in vivo, mouse (Carworth CF1 S female). To be noted: Mus musculus, po, Table 1, mice. From the text: This mouse test is predictive of analgesic response in humans. [E. Siegmund, R. Cadmus and G. Lee, Proc. Soc.
ED50 values were obtained graphically from the data.
On the technique in general: Writhing tests count abdominal constrictions after an irritant is injected.

Another series concerns female white mice. Kind of series: animal or person. The conditions noted are these: Mus musculus, po.
Where [2] appears, read: Table 1, oral, mice, 30 minutes after dosing.
[3] abbreviates: 0.3 mg/kg oral, 4 hrs, N=10 rats.
[4] abbreviates: Table II, oral, rats, 4 hrs, read-out: ED50.
Where [5] appears, read: read-out: Catatonia ED50, Table 1, oral, mice.
Where [6] appears, read: read-out: Exploratory Loss Visual ED50, Table 1, oral, mice.
Setting [7] is: read-out: Muscle Tone ED50, Table 1, oral, mice.
The mark [8] stands for this setting: read-out: Ptosis ED50, Table 1, Extrapolated value.
The mark [9] stands for this setting: read-out: Reflexes Grip ED50, Table 1, oral, mice.
[10] abbreviates: read-out: Reflexes Lift ED50, Table 1, oral, mice.
Where [11] appears, read: read-out: Reflexes Pinna ED50, Table 1, oral, mice.
Setting [12] is: read-out: Ptosis ED50, Table 1, oral, mice.

For `CN(C)CCCN1c2ccccc2Sc2ccc(Cl)cc21` [Chlopromazine, Chlorpromazine, reference compound], the ED50 (commonly the dose that gives a 50% effect, or the effect in half of the subjects) in the series on female CF1 S mice (po) is 7.3 mg/kg; in the series “in vivo” (Tremors ED50), greater than 324 mg/kg. The anti-anxiety activity result with Holzman male white rats is listed as “not active at non-sedating doses”.
For the compound `CN1C(=O)CN=C(c2ccccc2)c2cc(Cl)ccc21` [Diazepam, reference compound], the ED50 was 2 mg/kg in the series with female CF1 S mice (po); 6 mg/kg with Holzman male white rats (po, 1 h); greater than 324 mg/kg in “in vivo” (Tremors ED50, Table 1, mice). In addition, the “No. of Responders” value in the series on Holzman male white rats (1 mg/kg oral, 1 hr, N=6 rats) was 0; with Holzman male white rats (3 mg/kg oral, 1 hr, N=6 rats), 2; in the series with Holzman male white rats (10 mg/kg oral, 1 hr, N=6 rats) it was 5. Moreover, the anti-anxiety activity entry in the series on Holzman male white rats is “active in this test”.
As to `c1ccc2c(c1)C1CC3(CN(CC4CCCC4)CC23)c2ccccc21` (centres unmarked) [Example 7, 2-Cyclopentylmethyl-2,3,8,12b-tetrahydro-1H-3a,8-methanodibenzo[3,4:6,7]cyclohepta[1,2-c]pyrrole], the ED50 in the series on female CF1 S mice (setting [2]) turned out to be 0.66 mg/kg; in series [1] it was 2 mg/kg; in the series on Holzman male white rats (setting [4]) it was 0.2 mg/kg; with female white mice (setting [5]), 8 mg/kg; in the series on female white mice (setting [6]), 7 mg/kg; in the series on female white mice (setting [7]) it was 7 mg/kg. In addition, the ED50 in the series on female white mice (setting [8]) is 3 mg/kg; in the series on female white mice (setting [9]), 210 mg/kg; with female white mice (setting [10]), 11 mg/kg; in the series with female white mice (setting [11]), 9 mg/kg; in “in vivo”, greater than 324 mg/kg. For the same compound, the “No. of Responders” value in the series on Holzman male white rats (0.03 mg/kg oral, 4 hrs, N=10 rats) came out at 1; with Holzman male white rats (0.1 mg/kg oral, 4 hrs, N=20 rats), 7; in the series on Holzman male white rats (setting [3]) it was 6. For the same compound, the anti-anxiety activity result with Holzman male white rats is “potent anti-anxiety or minor tranquilizer activity”. For the same compound, in “in vivo”, the LD50 (usually the dose expected to kill half of the subjects tested) at 24 h is greater than 324 mg/kg.
For `CCCCCCCN1CC2c3ccccc3C3CC2(C1)c1ccccc13` (centres unmarked) [Example 15, 2-n-Heptyl-2,3,8,12b-tetrahydro-1H-3a,8-methanodibenzo[3,4:6,7]cyclohepta[1,2-c]pyrrole], the ED50 is 1 mg/kg with female CF1 S mice (setting [2]); 3.6 mg/kg in series [1]; 5 mg/kg in the series on female white mice (setting [5]); 3.2 mg/kg in the series on female white mice (read-out: Exploratory Loss Visual ED50, Table 1, Extrapolated value); 3 mg/kg in the series with female white mice (read-out: Muscle Tone ED50, Table 1, Extrapolated value); less than 3 mg/kg with female white mice (setting [12]). For the same compound, the ED50 was 260 mg/kg with female white mice (setting [9]), 9 mg/kg with female white mice (setting [10]) and greater than 324 mg/kg in “in vivo”. In addition, the LD50 at 24 h in the series “in vivo” was greater than 324 mg/kg.
Turning to `c1ccc2c(c1)C1CC3(CN(CC4CCCCC4)CC23)c2ccccc21` (centres unmarked) [Example 25, 2-Cyclohexylmethyl-2,3,8,12b-tetrahydro-1H-3a,8-methanodibenzo[3,4:6,7]cyclohepta[1,2-c]pyrrole], the ED50 with female CF1 S mice (setting [2]) turned out to be 4.7 mg/kg; in series [1], 6.4 mg/kg; in the series on Holzman male white rats (setting [4]) it was 0.5 mg/kg; in the series with female white mice (setting [5]), 9 mg/kg; with female white mice (setting [6]), 9 mg/kg; in the series with female white mice (setting [7]) it was 8 mg/kg. In addition, the 50% effective dose (ED50) in the series with female white mice (setting [8]) was 3 mg/kg; in the series on female white mice (read-out: Reflexes Grip ED50, Table 1, Extrapolated value), 450 mg/kg; in the series with female white mice (setting [10]), 8 mg/kg; with female white mice (setting [11]), 7 mg/kg; in “in vivo” it was 450 mg/kg. For the same compound, the “No. of Responders” value in the series on Holzman male white rats (0.1 mg/kg oral, 4 hrs, N=10 rats) stood at 1; with Holzman male white rats (setting [3]), 2; in the series on Holzman male white rats (1.0 mg/kg oral, 4 hrs, N=8 rats) it was 5. The anti-anxiety activity result in the series on Holzman male white rats is “potent anti-anxiety or minor tranquilizer activity”. The same compound returned an LD50 at 24 h in the series “in vivo” of 320 mg/kg.
Consider `C1=C(CN2CC3c4ccccc4C4CC3(C2)c2ccccc24)CCCC1` (centres unmarked) [Example 26, 2-(1-Cyclohexenylmethyl)-2,3,8,12b-tetrahydro-1H-3a,8-methanodibenzo[3.4:6,7]cyclohepta[1,2-c]pyrrole], for which the ED50 was 0.8 mg/kg with female CF1 S mice (setting [2]); 6.8 mg/kg in series [1]; 10 mg/kg in the series with female white mice (setting [5]); 12 mg/kg in the series with female white mice (setting [6]); 7 mg/kg with female white mice (setting [7]); 6 mg/kg in the series with female white mice (setting [12]). For the same compound, the ED50 with female white mice (setting [9]) is 400 mg/kg; in the series on female white mice (setting [10]) it was 15 mg/kg; in the series with female white mice (setting [11]), 15 mg/kg; in the series “in vivo”, greater than 324 mg/kg. Moreover, the LD50 at 24 h in the series “in vivo” was greater than 324 mg/kg.
`C1=CCC(CN2CC3c4ccccc4C4CC3(C2)c2ccccc24)CC1` (centres unmarked) [Example 27, 2-(3-Cyclohexenylmethyl)-2,3,8,12b-tetrahydro-1H-3a,8-methanodibenzo[3,4:6,7]cyclohepta[1,2-c]pyrrole]: the ED50 with female CF1 S mice (setting [2]) worked out at 0.29 mg/kg; in series [1], 4.2 mg/kg; in the series on female white mice (setting [5]) it was 4.5 mg/kg; in the series on female white mice (setting [6]) it was 4.5 mg/kg; in the series on female white mice (setting [7]) it was 4.5 mg/kg; with female white mice (setting [12]) it was 2.9 mg/kg. Besides, the ED50 in the series with female white mice (setting [9]) was 97 mg/kg; with female white mice (setting [10]), 9 mg/kg; in the series with female white mice (setting [11]) it was 8 mg/kg; in “in vivo”, greater than 324 mg/kg. The compound further registered an LD50 at 24 h in the series “in vivo” greater than 324 mg/kg.
